Read-outs that look alike come from different tables or passages of the source.
Molecular target: T1, hDAT (human dopamine transporter) (Homo sapiens, UniProt Q01959)
T1 construct: gene SLC6A3; full-length human DAT stably expressed in HEK293 cells; membrane preparation
Experiment: [3H]WIN35, […] competition binding, HEK293-hDAT membranes

[1] = read-out: hDAT Ki ± SEM (nM) ^a (n)

T1 sequence (Q01959 whole entry): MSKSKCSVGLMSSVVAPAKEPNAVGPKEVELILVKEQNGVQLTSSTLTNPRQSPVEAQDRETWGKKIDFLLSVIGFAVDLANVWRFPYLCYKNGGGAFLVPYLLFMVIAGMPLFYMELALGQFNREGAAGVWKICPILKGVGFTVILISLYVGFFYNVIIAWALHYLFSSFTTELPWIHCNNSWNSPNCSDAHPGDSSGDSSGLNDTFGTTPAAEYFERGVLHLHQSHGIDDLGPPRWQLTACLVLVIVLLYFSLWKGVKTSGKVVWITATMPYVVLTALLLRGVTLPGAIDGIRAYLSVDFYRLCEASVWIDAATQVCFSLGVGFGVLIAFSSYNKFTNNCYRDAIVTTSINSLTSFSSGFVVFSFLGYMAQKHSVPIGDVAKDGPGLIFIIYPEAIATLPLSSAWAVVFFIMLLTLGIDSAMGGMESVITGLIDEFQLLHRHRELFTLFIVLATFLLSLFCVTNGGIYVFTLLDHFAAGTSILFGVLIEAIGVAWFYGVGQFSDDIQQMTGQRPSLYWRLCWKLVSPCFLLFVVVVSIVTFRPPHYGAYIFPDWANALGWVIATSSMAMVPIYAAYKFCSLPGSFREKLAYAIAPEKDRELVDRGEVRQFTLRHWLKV

`CC(O)CN1[C@H](C)CN(CCSC(c2ccc(F)cc2)c2ccc(F)cc2)C[C@@H]1C` (stereo partly drawn) [RDS3-094] was tested, and the Ki was 50.1 ± 6.51 nM.

`CC(O)CN1CCN(CCSC(c2ccc(F)cc2)c2ccc(F)cc2)CC1` (stereo not drawn) [JJC8-089] gave a Ki [1] of 69.1 ± 10.5 nM.

Compound `CC(O)CN1[C@H](C)CN(CC[S+]([O-])C(c2ccc(F)cc2)c2ccc(F)cc2)C[C@@H]1C` (stereo partly drawn) [RDS4-010] has a Ki [1] of 1570 ± 186 nM.

Reference: PMC11202288, “The Structural Basis of the Activity Cliff in Modafinil-Based Dopamine Transporter Inhibitors” (Biomolecules, 2024)
